The values that follow come from patent US9808434B2, “Compound for treating cancer and diabetes” (CITY OF HOPE, priority 2011, dated 2017).

Series [1] has as its system fully differentiated adipocytes. As to the kind of experiment: Dedifferentiation of fully differentiated adipocytes, Oil Red O staining. In kind it is cell-based. As to conditions: differentiated 7 days, treated additional 3 days. Here is the method:
Fully differentiated adipocyte cells were differentiated for 7 days and were treated for additional 3 days with DM+ a test compound (COH-SR3, COH-SR7, or LR59), DM+ a positive control (Apicidin, TSA or C75), DM, or nothing (control).

The test system of series [2] is HL-60 cells. In words: Differentiation of HL-60 cells (Giemsa-Wright, NBT, CD11b/CD14). In kind it is cell-based, human. To be noted: 48 hours, 2-10 μM. The procedure:
HL-60 cells were incubated with a test compound at various concentrations (2˜10 μM), DMSO, or without any test compound for 48 hours, and then examined for morphologic changes by Giemsa-Wright stain. The results were observed microscopically and shown in FIG. 13 at a magnification of ×400. […] Such results were similar to cells treated with DMSO or all-trans retinoic acid (ATRA), wherein DMSO or ATRA terminally differentiated HL-60 cells into myeloid cells (FIG. 13).
HL-60 cells (2.5×10^5) were treated with or without a test compound for 48 hours and then stained with NBT, wherein positively-stained cells appeared as purple black (FIG. 14A). NBT positive cells were counted and the overall percentage was calculated based on 200 total cells counted for each treatment. Three˜four independent experiments were carried out, and data are shown as mean±SE (FIG. 14B). This measurement of “oxidative burst” by the NBT assay is a well-known and extensively tested functional marker of HL-60 cell differentiation.
HL-60 cells (2.5×10^5) were incubated with a test compound (COH-SR4 or COH-SR9) at a concentration of 0.5 μM, 1 μM, 2 μM, or 3 μM, or without any COH-SR compound for 48 hours and then assessed for the surface expression of CD11b (FIG. 14C) and CD14 (FIG. 14D) by flow cytometry, respectively. Three-four independent experiments were carried out, and data are shown as mean±SE (FIGS. 14C and 14D).

In series [3] the test system is NCI-60 human tumor cell lines. In words: NCI-60 DTP Human Tumor Cell Line Drug Screening. In kind it is cell-based. As to conditions: leukemia, NSCLC, colon, CNS, melanoma, ovarian, renal, prostate, breast lines. An excerpt: Moreover, preliminary data from the NCI-60 DTP Human Tumor Cell Line Drug Screening (http://dtp.nci.nih.gov/branches/btb/ivclsp.html) further confirmed the observations on these COH-SR compounds. […] A value of 100 meant no growth inhibition. A value of 20 meant 80% growth inhibition. A value of 0 meant no net growth over the course of the experiment. A value of −40 meant 40% lethality. A value of −100 meant all cells were dead.

In series [4] the test system is 3T3-L1 cells. In words: Intracellular triglyceride contents, AdipoRed Assay. In kind it is cell-based, mouse. As to conditions: 7 days in DM + compound. Here is the method:
Intracellular triglyceride contents were measured using AdipoRed Assay™ and the results were shown in relative fluorescence units (RFU) in FIG. 5.
(§1) 3T3-L1 preadipocytes cells were treated with differentiating media (DM) with COH-SR4 (1 μM, 3 μM, or 5 μM) or without for 7 days. […] As used in FIG. 9C, U=undifferentiated, D=differentiated with cocktail media.

Series [5] has as its system 3T3-L1 cells. As to the kind of experiment: Adipocyte differentiation, Oil Red O staining. The format is cell-based, mouse. To be noted: preadipocytes 7 days in differentiating media (DM) + compound. The procedure:
Two-day post-confluent 3T3-L1 preadipocyte cells were allowed to differentiate for 7 days in the presence of nothing, DM only, DM+ a test compound (COH-SR1, COH-SR2, COH-SR3, COH-SR4, COH-SR7, LR23 or LR59), or DM+ a positive control (TSA, C75, or Apicidin).
as §1

Series [6] concerns HL-60 cells. In words: HL-60 cell viability, MTT assay. A general note: Tetrazolium assays rely on reduction of a dye to a coloured formazan, in cell work by metabolically active cells.
Procedure: Three independent experiments were carried out with 3 duplications each, and data are shown as mean±SE.
Series [7] relates to undifferentiated 3T3-L1 cells. As to the kind of experiment: Preadipocyte viability, MTT assay. The format is cell-based, mouse. As to conditions: 3 days, 2.5-25 μM. The procedure: Undifferentiated 3T3-LI cells were treated with COH-SR2, COH-SR3, COH-SR4, COH-SR7, LR23 or LR59 for 3 days at a concentration of 2.5 μM, 5 μM, 10 μM, 15 μM, 20 μM, or 25 μM. The cell viability for each treatment was determined by MTT assay (FIG. 7).

Series [8] relates to HMLE breast cancer cell line. In words: HMLE viability, DIMSCAN assay. As to conditions: 3 days, 2-50 μM. The format is cell-based, human. Here is the method:
The effects of COH-SR compounds on breast cancer cells were investigated. Cells from 4T1 or HMLE breast cancer cell line were seeded in 96-well plates (about 2000 cells/well), allowed to proliferate for one day, treated with a COH-SR compound, doxorubicin, paclitaxel, cisplatin, or nothing (control) at a specific dose (3 wells for each treatment) and assayed for cell viability 3 days after using DIMSCAN assay. COH-SR3, COH-SR4, COH-SR9, doxorubicin, paclitaxel, and cisplatin were used at a dosage of 40 nM, 200 nM, 1 μM, 2 μM, 10 μM, or 50 μM for 4T1 breast cancer cell lines. COH-SR14 was used at a dosage of 40 nM, 200 nM, 1 μM, 2 μM, or 10 μM for 4T1 breast cancer cell lines. COH-SR3, COH-SR4, COH-SR9, doxorubicin, paclitaxel, and cisplatin were used at a dosage of 2 μM, 10 μM, or 50 μM for HMLE breast cancer cell lines. COH-SR14 was used at a dosage of 2 μM, or 10 μM for HMLE breast cancer cell lines.

In the next series the test system is U251. In words: Glioma ATP viability assay, U251. The format is cell-based. As to conditions: Homo sapiens, U-251, 72 h, Table 2. The procedure:
(§2) Cells of each cell line (U251, U87, PBT-017, PBT018, PBT003 and PBT028) were treated with various concentrations (0˜100 μM) of COH-SR4 for 72 hours. Cell viabilities were determined by ATP viability assays. Data were represented as a ratio to vehicle (DMSO) control, and plotted as mean±SEM (n=12) obtained from 2˜3 experiments (FIG. 34A).
(§3) Cells of each cell line (U87, U251, PBT003 and PVT-017) were treated with various concentrations (0˜100 μM) of COH-SR4 for 72 hours. Cell viabilities were determined by ATP viability assays. Data were represented as a ratio to vehicle (DMSO) control, and plotted as mean±SEM (n=12) obtained from 2-3 experiments (FIG. 34B).
(§4) Cells of each cell line were treated with various concentrations (0˜100 μM) of COH-SR4 or various concentrations (0˜1000 μM) of TMZ for 72 hours. Cell viabilities were determined by ATP viability assays. Data were represented as a ratio to untreated cells as control, and plotted as mean±SEM (n=12) obtained from 2˜3 experiments (FIGS. 43A-B).

For another series, the system named is PBT-017. In words: Glioma ATP viability assay, PBT-017. The format is cell-based. As to conditions: 72 h, Table 2. Here is the method:
as §2, §3, §4

The next series addresses T1, GSTP (Homo sapiens, UniProt P09211).
T1 construct: made in house; host or cells: E. coli BL21 (DE3)
In words: GSTP activity towards CDNB in the presence of GSR4. In kind it is biochemical. To be noted: 93977 at 0 μM. Here is the method: Furthermore, GSTP activities towards CDNB were assessed in the presence of various concentration of GSR4. The GSTP activities decreased when the concentration of GSR4 increased (Table 3). Thus, […] was a product inhibitor of GSTP with an estimated Ki of less than 5 μM.

T1 sequence (P09211 whole entry): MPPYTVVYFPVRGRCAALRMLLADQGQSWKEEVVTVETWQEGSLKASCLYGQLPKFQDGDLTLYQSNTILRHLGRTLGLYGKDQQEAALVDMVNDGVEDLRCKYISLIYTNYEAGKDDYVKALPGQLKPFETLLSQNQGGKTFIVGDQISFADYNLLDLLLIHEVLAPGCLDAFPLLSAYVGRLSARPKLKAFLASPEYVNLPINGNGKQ

For the compound `O=C(Nc1ccc(Cl)c(Cl)c1)Nc1ccc(Cl)c(Cl)c1` [COH-SR3, 1,3-bis(3,4-dichlorophenyl)urea], in [1], the “dedifferentiation of fully differentiated adipocytes” value is given as “induced dedifferentiation of fully differentiated adipocytes”. For the same compound, the “morphologic changes (Giemsa-Wright stain), myeloid differentiation” value with HL-60 cells [2] was “exhibited cytoplasmic vacuolation, reduced nucleus-to-cytoplasmic ratio, and absence of prominent nucleoli”. Further, the “activity in NCI-60 screening” value in series [3] was “active against”. In addition, in the series on 3T3-L1 cells [4], the “intracellular triglyceride contents (AdipoRed Assay)” value is “dose-dependently reduced”. In addition, the “differentiation and accumulation of lipid droplets (Oil Red O staining)” value with 3T3-L1 cells [5] was “dose-dependently inhibited differentiation and accumulation of lipid droplets”. Also, the “cytotoxicity and cell proliferation” value in the series on HL-60 cells [6] (48 hours, 1-15 μM) is “exhibited cytotoxicity and prevented cell proliferation of HL-60 leukemia cells”. In the series with HL-60 cells [6] (Homo sapiens, HL-60, 48 h), the 50% inhibitory concentration (IC50) (usually the midpoint of a concentration-inhibition curve) was below 5 µM. Besides, the “growth of undifferentiated preadipocytes (MTT)” value in series [7] is reported as “inhibited growth of undifferentiated 3T3-L1 cells”. Besides, the “cytotoxic effects compared with doxorubicin, paclitaxel and cisplatin (FIG. 30)” value in [8] was “more potent cytotoxic effects”.

Regarding `Cn1nnc2c(C(N)=O)ncn2c1=O` [TMZ, temozolomide, reference compound], the IC50 was 371 µM with U251 and 13 µM in the series on PBT-017.

As for mono-glutationyl-SR4 [GSR4], the “GSTP activity towards CDNB (Kcat [s−1])” value came to 36385 s⁻¹ at GSTP ([GSR4] 5 μM) and 16115 s⁻¹ at GSTP ([GSR4] 10 μM).
